Calls of active or inactive are those of the source.
Columns and labels:
[1] = Counterscreen for activators of the function of SWI/SNF related, matrix associated, actin dependent regulator of chromatin, subfamily a, member 2 (SMARCA2, BRM): Luminescence-based cell-based high throughput dose response assay to identify non-selective compounds using the VP16 reporter assay.; type: functional
[2] = target: SWI/SNF-related matrix-associated actin-dependent regulator of chromatin subfamily A member 2 (Homo sapiens, UniProt P51531); experiment: Luminescence-based cell-based high throughput dose response assay to identify activators of the function of SWI/SNF related, matrix associated, actin dependent regulator of chromatin, subfamily a, member 2 (SMARCA2, BRM).; type: functional
[3] = target: T1, Sentrin-specific protease 6 (Homo sapiens, UniProt Q9GZR1); type: functional;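 further: Luminescence-based dose-response confirmatory assay of SENP6 inhibition, following up an ultra-high-throughput screen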
T1 sequence (Q9GZR1 whole entry): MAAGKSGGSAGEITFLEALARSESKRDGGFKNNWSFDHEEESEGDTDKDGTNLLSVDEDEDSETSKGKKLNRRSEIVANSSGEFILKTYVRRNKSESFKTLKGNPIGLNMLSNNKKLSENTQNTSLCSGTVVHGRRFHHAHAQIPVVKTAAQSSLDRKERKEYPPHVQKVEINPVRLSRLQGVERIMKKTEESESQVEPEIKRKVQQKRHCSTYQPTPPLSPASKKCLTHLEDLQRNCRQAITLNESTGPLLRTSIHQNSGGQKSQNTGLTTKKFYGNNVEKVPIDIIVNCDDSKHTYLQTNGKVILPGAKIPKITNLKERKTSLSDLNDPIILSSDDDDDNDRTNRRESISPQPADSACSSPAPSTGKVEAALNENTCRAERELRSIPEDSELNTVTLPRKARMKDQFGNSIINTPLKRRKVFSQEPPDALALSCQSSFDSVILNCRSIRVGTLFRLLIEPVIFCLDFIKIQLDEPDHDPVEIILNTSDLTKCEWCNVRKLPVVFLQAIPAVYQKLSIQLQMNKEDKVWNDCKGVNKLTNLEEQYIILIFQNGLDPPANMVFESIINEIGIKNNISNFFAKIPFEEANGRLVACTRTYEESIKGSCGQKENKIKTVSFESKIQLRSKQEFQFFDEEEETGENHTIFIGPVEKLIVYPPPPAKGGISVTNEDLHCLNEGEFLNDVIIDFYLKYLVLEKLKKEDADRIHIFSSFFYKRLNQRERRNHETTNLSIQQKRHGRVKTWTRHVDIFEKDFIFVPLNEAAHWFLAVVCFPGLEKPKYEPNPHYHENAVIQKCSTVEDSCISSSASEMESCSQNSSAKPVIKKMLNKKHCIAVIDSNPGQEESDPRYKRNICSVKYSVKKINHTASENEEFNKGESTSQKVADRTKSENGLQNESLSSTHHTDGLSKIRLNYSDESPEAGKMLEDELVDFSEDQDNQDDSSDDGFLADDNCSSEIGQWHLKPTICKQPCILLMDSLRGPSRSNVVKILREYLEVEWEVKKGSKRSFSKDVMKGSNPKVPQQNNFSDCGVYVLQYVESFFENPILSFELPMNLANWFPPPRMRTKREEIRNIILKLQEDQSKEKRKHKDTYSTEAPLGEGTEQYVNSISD

[4] = target: T2, Sentrin-specific protease 8 (Homo sapiens, UniProt Q96LD8); type: functional;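 further: luminescence read-out of SENP8 inhibition, dose-response confirmation following an ultra-high-throughput screen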
T2 sequence (Q96LD8 whole entry): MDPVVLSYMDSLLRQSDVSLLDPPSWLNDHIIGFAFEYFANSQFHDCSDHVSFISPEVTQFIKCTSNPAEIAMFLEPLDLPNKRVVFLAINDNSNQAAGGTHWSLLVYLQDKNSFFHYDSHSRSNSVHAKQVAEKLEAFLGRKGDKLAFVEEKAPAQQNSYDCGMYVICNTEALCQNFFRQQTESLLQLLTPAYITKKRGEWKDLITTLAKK

[5] = target: T3, Sentrin-specific protease 7 (Homo sapiens, UniProt Q9BQF6); type: functional;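 further: Luminescence-based dose-response confirmation of ultra-high-throughput screening hits, measuring inhibition of SENP7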
T3 sequence (Q9BQF6 whole entry): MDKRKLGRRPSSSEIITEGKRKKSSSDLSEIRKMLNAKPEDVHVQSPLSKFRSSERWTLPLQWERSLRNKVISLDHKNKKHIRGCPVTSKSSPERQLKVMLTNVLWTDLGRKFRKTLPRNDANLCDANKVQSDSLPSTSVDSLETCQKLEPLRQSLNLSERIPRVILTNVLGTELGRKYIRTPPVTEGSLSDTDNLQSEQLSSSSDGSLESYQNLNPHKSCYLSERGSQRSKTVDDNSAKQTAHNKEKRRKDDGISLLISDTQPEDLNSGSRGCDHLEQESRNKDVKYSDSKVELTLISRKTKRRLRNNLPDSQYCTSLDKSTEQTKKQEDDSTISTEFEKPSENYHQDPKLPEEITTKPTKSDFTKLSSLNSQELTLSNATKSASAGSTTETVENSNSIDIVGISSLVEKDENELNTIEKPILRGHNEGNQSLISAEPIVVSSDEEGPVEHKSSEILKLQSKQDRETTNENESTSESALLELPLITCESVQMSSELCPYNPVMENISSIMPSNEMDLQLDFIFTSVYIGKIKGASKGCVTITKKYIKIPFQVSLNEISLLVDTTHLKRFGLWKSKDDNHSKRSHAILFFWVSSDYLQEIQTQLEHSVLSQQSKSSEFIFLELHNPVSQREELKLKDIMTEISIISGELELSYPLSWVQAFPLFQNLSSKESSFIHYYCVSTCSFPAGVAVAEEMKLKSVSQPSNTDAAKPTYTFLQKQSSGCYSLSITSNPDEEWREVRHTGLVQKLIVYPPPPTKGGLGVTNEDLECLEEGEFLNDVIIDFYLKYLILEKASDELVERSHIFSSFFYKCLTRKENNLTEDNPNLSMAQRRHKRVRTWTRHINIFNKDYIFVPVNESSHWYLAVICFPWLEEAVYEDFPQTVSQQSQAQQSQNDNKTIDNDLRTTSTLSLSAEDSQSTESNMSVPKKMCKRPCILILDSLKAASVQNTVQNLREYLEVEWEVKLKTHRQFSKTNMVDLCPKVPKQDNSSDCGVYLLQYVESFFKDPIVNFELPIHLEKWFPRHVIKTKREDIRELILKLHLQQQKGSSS

Caspase-3 = target: T4, Caspase-3 (Homo sapiens, UniProt P42574); type: functional;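 further: Dose-response selectivity test against caspase-3 for candidate inhibitors of sentrin-specific proteases (SENPs)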
T4 sequence (P42574 whole entry): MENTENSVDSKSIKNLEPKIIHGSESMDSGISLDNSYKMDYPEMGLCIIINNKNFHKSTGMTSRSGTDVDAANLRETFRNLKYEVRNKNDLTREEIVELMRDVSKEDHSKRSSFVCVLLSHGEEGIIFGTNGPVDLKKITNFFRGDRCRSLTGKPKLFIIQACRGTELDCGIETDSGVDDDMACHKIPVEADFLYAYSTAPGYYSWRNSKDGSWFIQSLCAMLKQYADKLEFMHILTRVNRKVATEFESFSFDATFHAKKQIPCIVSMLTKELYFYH

[6] = inhibitors of PGC1a acetylation in cells, dose response, cell-based, cherry-picked samples (AID 720514); type: functional;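 further: potency may reflect raised or lowered acetylation signal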
[7] = A cytotoxicity screen of small molecule inhibitors of the PhoP region in Salmonella typhi identified in the primary screen. [Related pubchem assays: 1850, 1864, 1985 ]; type: functional
Nonstructural protein 1 = Nonstructural protein 1 (Influenza A virus, UniProt Q194T2); type: functional, Influenza A virus (A/California/07/2009(H1N1))
[8] = Luminescence Cell-Based Dose Retest to Confirm Inhibitors of Cancer Stem Cells. [Related pubchem assays (depositor defined):AID2717, AID2721]; type: functional; conditions: Homo sapiens
INS1 = experiment: beta cell apoptosis inhibitors, cytokine rescue, dose response, luminescence, retest (AID 449756); type: functional, cell-based; conditions: Rattus norvegicus;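 further: cell death triggered by IL-1 beta plus TNF-alpha plus IFN-gamma mixture; protective hits raise ATP signal compared with cytokine alone wells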
Paired box protein Pax-8 = Paired box protein Pax-8 (Homo sapiens, UniProt Q06710); experiment: inhibitors of PAX8-driven TPO luciferase reporter, dose response, RMG-I cells, cherry-pick (AID 687027); type: functional, cell-based;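 further: luciferase reporter driven by Pax8 target thyroperoxidase promoter measured by SteadyGlo luminescence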
[9] = intracellular Trypanosoma cruzi inhibitors in host cells – cell-based, plate reader, cherry-pick samples, set 3, dose response (AID 651818); type: functional;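 further: compounds incubated with infected cells for about four days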
[10] = inhibitors of HIV Env-driven cell fusion, dose response, cherry-pick (AID 652057); type: functional, cell-based
[11] = inhibitors of clade B AD8 Env fusion, dose response, cell-based, cherry-pick (AID 652062); type: functional;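 further: luciferase signal from cell-cell fusion driven by HIV-1 clade B AD8 Env; potency is for inhibitors of fusion seen as a drop in luminescence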
[12] = ZM109 Env clade C HIV-1 fusion inhibitors, dose response, HeLa effector, CEM target cells, luciferase, cherry-pick (AID 652058); type: functional, cell-based
[13] = P. falciparum Dd2 growth inhibitors, dose response, SYBR Green, dry powder samples (AID 1159566); type: functional, cell-based;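 further: potency for growth inhibition with lower SYBR green DNA signal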
[14] = P. falciparum ATP4 D1247Y mutant growth inhibitors, dose response, NITD609-resistant line, SYBR Green, dry powder (AID 1159571); type: functional, cell-based;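 further: parasites synchronized at ring stage by sorbitol before testing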
[15] = HepG2 cell cytotoxicity, dose response, cytotoxicity control, plate reader, dry powder samples (AID 1159569); type: functional, cell-based;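 further: inhibitor potency with signal falling toward the positive control level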
[16] = P. falciparum Dd2 growth inhibitors, dose response, SYBR Green, cherry-picked samples (AID 1159567); type: functional, cell-based
[17] = P. falciparum 3D7-ScDHODH growth inhibitors, dose response, SYBR Green, dry powder samples (AID 1159570); type: functional, cell-based;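 further: parasite growth measured after 72 hours of compound exposure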

Paired box protein Pax-8, sequence (Q06710 whole entry): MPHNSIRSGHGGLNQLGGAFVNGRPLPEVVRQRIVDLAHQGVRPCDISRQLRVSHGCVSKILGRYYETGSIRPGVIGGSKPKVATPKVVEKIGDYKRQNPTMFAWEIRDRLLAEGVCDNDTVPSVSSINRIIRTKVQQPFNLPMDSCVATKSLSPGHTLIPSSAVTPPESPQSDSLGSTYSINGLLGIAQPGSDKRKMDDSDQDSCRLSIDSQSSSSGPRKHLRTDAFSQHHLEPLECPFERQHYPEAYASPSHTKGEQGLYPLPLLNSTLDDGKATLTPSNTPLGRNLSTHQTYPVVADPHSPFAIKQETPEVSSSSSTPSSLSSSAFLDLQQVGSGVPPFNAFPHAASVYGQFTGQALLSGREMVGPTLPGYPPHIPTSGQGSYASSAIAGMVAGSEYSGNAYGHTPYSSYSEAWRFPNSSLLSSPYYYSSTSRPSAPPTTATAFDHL
SWI/SNF-related matrix-associated actin-dependent regulator of chromatin subfamily A member 2, sequence (P51531 whole entry): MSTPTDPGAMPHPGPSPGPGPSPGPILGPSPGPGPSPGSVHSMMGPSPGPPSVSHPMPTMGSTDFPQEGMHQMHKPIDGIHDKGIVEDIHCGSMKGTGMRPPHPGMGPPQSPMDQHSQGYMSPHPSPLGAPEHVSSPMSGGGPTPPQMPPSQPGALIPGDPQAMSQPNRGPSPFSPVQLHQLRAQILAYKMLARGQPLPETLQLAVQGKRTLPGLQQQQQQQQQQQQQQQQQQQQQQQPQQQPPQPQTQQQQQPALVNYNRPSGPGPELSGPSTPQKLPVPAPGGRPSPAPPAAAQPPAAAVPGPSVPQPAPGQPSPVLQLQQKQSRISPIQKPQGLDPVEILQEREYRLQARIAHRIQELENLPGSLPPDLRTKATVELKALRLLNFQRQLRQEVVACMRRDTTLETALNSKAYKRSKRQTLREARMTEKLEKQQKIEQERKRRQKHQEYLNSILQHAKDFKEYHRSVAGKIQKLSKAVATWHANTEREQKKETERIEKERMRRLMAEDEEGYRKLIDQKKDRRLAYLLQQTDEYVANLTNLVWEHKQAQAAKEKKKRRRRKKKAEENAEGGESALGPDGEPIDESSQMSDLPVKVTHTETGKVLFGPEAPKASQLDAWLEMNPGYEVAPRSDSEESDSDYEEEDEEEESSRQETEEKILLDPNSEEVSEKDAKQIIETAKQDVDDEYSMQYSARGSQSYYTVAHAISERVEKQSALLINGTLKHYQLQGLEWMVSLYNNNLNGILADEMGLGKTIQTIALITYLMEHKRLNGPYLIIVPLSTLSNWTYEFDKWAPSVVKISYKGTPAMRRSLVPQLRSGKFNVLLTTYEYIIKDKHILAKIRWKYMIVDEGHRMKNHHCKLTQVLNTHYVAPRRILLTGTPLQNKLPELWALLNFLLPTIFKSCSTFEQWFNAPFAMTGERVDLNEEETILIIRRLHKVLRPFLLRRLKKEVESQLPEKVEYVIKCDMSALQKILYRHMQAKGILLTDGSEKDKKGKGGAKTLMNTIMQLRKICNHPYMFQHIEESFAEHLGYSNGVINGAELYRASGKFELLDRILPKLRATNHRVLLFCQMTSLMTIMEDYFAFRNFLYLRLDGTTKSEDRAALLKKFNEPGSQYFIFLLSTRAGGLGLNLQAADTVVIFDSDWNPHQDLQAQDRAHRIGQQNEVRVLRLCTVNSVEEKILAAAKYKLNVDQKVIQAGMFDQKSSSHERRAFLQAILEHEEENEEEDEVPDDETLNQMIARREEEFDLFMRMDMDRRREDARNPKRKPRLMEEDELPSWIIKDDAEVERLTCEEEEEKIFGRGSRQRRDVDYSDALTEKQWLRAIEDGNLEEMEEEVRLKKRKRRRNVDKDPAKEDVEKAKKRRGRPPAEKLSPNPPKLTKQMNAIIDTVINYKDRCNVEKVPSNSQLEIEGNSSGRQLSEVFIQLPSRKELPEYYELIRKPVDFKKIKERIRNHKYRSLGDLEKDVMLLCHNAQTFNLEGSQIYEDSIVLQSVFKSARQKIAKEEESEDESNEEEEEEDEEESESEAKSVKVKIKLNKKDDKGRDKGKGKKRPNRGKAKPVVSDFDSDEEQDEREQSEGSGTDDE
Nonstructural protein 1, sequence (Q194T2 whole entry): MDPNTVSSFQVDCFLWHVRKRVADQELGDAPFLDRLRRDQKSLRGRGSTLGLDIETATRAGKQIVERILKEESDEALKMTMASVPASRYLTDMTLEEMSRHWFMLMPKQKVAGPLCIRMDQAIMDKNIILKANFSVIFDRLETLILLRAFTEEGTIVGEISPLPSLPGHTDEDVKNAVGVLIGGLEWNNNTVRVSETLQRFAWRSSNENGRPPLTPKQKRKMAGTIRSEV

## COCn1c(COc2ccccc2)nc2ccccc21
[1]
  EC50: > 91.2 µM (inactive)
[2]
  EC50: > 91.2 µM (inactive)

## COc1ccccc1CNC(=O)COc1ccccc1C(=O)c1cnn(-c2ccccc2)c1
[3]
  IC50: 26.1 µM (active)
[4]
  IC50: 24.3 µM (active)
[5]
  IC50: 11.4 µM (active)
Caspase-3
  IC50: 21.9 µM (active)

## CC1CCC[C@H](O)CCCCCc2cc(O)cc(O)c2C(=O)O1 (some centres undefined)
[6]
  AC50: 35.9 µM (active)
[7]
  EC50: > 50 µM (active)

## CCCCNc1c([N+](=O)[O-])ccc2c1=NC1(CCCCC1)[N+]=2[O-]
Nonstructural protein 1
  IC50: 43.8 µM (active)

## C=C1C(=O)OC2C1CCC(C)C1C=CC(=O)C12C (centres undefined)
[1]
  EC50: > 91.2 µM (inactive)
[2]
  EC50: > 91.2 µM (inactive)

## COc1cc(Cl)c(NC2=CC(=O)C(=O)c3ccccc32)c(OC)c1
[3]
  IC50: 9.11 µM (active)
[4]
  IC50: 14.5 µM (active)
[5]
  IC50: 15.6 µM (active)
Caspase-3
  IC50: 28.8 µM (active)
[8]
  AC50: 1.15 µM (active)
INS1
  AC50: 3.33 µM (active)
Paired box protein Pax-8
  AC50: 4.49 µM (active)

## C[C@@H]1CN([C@H](C)CO)C(=O)c2cccc(NC(=O)Nc3cccc4ccccc34)c2O[C@@H]1CN(C)Cc1ccc(C(F)(F)F)cc1
[9]
  AC50: 6.48 µM (active)

## C[C@H]1CN([C@@H](C)CO)C(=O)Cc2cc(NC(=O)Nc3ccc(C(F)(F)F)cc3)ccc2O[C@@H]1CN(C)CC1CCCCC1
[9]
  AC50: 3.54 µM (active)

## COc1ccc(S(=O)(=O)Nc2ccc3c(c2)C(=O)N([C@H](C)CO)C[C@H](C)[C@@H](CN(C)Cc2ccc(Cl)c(Cl)c2)OCCCC[C@@H](C)O3)cc1
[9]
  AC50: 2.64 µM (active)
Paired box protein Pax-8
  AC50: 10.2 µM (active)

## C[C@@H]1CN([C@H](C)CO)C(=O)Cc2cc(NC(=O)Nc3ccc4c(c3)OCO4)ccc2O[C@@H]1CN(C)Cc1ccc(C(=O)Nc2ccccc2N)cc1
[9]
  AC50: 2.04 µM (active)

## C[C@H](CO)N1C[C@H](C)[C@@H](CN(C)Cc2ccc(Cl)c(Cl)c2)Oc2c(NC(=O)Nc3cccc4ccccc34)cccc2C1=O
[9]
  AC50: 9.77 µM (active)

## COc1ccc(CNC(=O)N(C)C[C@@H]2OCc3ccccc3-c3c(n(C)c4ccccc34)C(=O)N([C@H](C)CO)C[C@@H]2C)cc1
[10]
  AC50: < 235 nM (active)
[11]
  AC50: < 235 nM (active)
[12]
  AC50: < 235 nM (active)

## Cc1[nH]n(-c2ccccc2)c(=O)c1N=Nc1ccc(F)cc1
Nonstructural protein 1
  IC50: 84.7 µM (active)

## COc1ccc(-c2cnc3c(c2)C(=O)N([C@H](C)CO)C[C@@H](C)[C@@H](CN(C)C(=O)Nc2c(C)noc2C)O3)cc1
[6]
  AC50: 12.2 µM (active)

## CC(C)(C)[S@@+]([O-])N1Cc2cc(C(=O)NCCN3CCCCC3)nc(-c3cccc(-c4ccc(C#N)cc4)c3)c2[C@H]1CCO
[13]
  AC50: 2.37 µM (active)
[14]
  AC50: 2.9 µM (active)
[15]
  AC50: 63.2 µM (active)
[16]
  AC50: 2.79 µM (active)
[17]
  AC50: 3.54 µM (active)

## C[C@@H]1CN([C@@H](C)CO)S(=O)(=O)c2ccc(/C=C/c3ccccc3)cc2O[C@H]1CN(C)Cc1cccnc1
[13]
  AC50: 1.63 µM (active)
[14]
  AC50: 2.15 µM (active)
[15]
  AC50: 56.2 µM (active)
[16]
  AC50: 1.93 µM (active)
[17]
  AC50: 1.6 µM (active)

## COc1ccc(S(=O)(=O)N(C)C[C@@H]2Oc3cc(-c4ccccc4OC)ccc3S(=O)(=O)N([C@H](C)CO)C[C@H]2C)cc1
[13]
  AC50: 0.653 µM (active)
[14]
  AC50: 0.766 µM (active)
[15]
  AC50: > 100 µM (inactive)
[16]
  AC50: 1.12 µM (active)
[17]
  AC50: 0.894 µM (active)

## OC[C@@H]1CC[C@@H]2O[C@H](CCc3ccc(-c4ccccc4)cc3)[C@H](n3cc(-c4ccccc4)nn3)C[C@@H]2O1
[13]
  AC50: 0.555 µM (active)
[14]
  AC50: 0.885 µM (active)
[15]
  AC50: > 100 µM (inactive)
[16]
  AC50: 1.34 µM (active)
[17]
  AC50: 1.38 µM (active)

## C/C=C/c1ccc2c(c1)[C@H]1[C@H](CCN1C(=O)c1cccc(F)c1)[C@H](CO)N2
[13]
  AC50: 1.05 µM (active)
[14]
  AC50: 1.64 µM (active)
[15]
  AC50: > 100 µM (inactive)
[16]
  AC50: 1.54 µM (active)
[17]
  AC50: 1.46 µM (active)

Source: ChEMBL document CHEMBL1201862, “PubChem BioAssay data set” (2004)
